Assay results taken from BindingDB's records for patent US10889592 (VALO EARLY DISCOVERY, INC., 2021).

Tests used:
[1] = biological target: T1, Ubiquitin carboxyl-terminal hydrolase 28 (Homo sapiens, UniProt Q96RU2); experiment: Biochemical Assay
T1 sequence (Q96RU2 whole entry): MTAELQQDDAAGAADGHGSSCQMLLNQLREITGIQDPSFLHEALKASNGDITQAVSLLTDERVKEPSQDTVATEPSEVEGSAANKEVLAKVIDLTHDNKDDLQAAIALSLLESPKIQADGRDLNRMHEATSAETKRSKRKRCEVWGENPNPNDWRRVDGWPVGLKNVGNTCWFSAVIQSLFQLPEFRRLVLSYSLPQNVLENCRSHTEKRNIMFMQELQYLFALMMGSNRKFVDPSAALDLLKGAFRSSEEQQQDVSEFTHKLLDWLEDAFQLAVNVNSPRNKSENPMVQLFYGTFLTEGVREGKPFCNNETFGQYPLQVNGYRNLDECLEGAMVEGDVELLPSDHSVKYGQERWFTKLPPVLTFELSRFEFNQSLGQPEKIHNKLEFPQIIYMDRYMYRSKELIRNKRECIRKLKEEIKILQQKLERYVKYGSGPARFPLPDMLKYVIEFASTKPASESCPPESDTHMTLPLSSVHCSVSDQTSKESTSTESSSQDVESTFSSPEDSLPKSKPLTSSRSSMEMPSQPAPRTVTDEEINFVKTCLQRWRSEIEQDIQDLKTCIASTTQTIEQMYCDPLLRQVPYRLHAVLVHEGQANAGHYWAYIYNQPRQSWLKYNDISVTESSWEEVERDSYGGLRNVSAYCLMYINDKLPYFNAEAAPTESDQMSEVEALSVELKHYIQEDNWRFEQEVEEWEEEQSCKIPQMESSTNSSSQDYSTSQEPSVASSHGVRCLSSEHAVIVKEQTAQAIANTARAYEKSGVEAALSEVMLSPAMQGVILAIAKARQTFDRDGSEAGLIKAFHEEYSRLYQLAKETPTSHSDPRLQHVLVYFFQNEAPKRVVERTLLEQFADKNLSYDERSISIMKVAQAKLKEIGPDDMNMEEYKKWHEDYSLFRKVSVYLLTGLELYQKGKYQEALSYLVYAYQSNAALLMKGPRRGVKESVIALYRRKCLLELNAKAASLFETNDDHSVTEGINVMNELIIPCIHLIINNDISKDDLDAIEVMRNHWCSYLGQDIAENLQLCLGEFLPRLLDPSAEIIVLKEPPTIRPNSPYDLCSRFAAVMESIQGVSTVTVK
Description: USP28: Each assay was performed in a final volume of 20 μL in assay buffer containing 20 mM Tris-HCl (pH 8.0, (1M Tris-HCl, pH 8.0 solution; Corning 46-031-CM)), 2 mM CaCl2) (1M Calcium Chloride solution; Sigma #21114) 2 mM BME (2-Mercaptoethanol; Sigma 63689-25ML-F), 0.01% Prionex (0.22 μM filtered, Sigma # G-0411), and 0.01% Triton X-100. Stock compound solutions were stored at −20° C. as 10 mM in DMSO. Up to 1 month prior to the assay, 2 mM test compounds were pre-dispensed into assay plates (Black, low volume; Corning #3820) and frozen at −20° C. Prestamped assay plates were allowed to come to room temperature on the day of the assay. For the screen, 100 nL of 2 mM was pre-dispensed for a final screening concentration of 10 μM (DMSO(fc)=0.5%). […] Plates were incubated stacked for 90 minutes at room temperature before fluorescence was read on the Envision (Excitation at 485 nm and Emission at 535 nm; Perkin Elmer) or on the PheraSTAR (Excitation at 485 nm and Emission at 535 nm; BMG Labtech).

[2] = biological target: T2, Ubiquitin carboxyl-terminal hydrolase 25 (Homo sapiens, UniProt Q9UHP3); experiment: Biochemical Assay
T2 sequence (Q9UHP3 whole entry): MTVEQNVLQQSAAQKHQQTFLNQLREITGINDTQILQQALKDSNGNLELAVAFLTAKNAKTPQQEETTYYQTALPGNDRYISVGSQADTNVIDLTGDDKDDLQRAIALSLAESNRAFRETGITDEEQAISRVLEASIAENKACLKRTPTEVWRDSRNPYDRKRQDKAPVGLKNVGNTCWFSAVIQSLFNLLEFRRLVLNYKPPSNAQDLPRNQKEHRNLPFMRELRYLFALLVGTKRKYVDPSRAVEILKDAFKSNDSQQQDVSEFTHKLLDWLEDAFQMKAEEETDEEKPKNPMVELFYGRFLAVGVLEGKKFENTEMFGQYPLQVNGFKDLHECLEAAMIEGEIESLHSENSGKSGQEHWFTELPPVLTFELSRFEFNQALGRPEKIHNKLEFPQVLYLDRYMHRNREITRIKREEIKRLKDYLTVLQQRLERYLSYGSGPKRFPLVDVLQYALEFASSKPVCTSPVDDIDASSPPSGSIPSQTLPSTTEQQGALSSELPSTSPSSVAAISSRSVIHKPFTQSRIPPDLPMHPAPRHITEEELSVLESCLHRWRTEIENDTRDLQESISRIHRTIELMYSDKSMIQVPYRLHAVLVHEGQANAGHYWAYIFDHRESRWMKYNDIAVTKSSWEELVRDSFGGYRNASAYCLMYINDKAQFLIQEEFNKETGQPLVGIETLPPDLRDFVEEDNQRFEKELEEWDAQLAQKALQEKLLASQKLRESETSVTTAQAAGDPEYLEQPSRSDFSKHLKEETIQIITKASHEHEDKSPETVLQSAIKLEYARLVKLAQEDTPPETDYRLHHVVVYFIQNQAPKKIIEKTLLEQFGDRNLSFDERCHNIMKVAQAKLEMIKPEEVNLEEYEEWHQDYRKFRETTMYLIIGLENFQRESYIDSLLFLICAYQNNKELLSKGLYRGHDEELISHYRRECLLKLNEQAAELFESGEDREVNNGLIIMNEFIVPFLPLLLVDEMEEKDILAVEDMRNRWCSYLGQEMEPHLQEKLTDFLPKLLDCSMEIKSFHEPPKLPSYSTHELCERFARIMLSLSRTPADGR
Description: USP25: The assay was performed in a final volume of 9 μL in assay buffer containing 20 mM Tris-HCl (pH 8.0, (1M Tris-HCl, pH 8.0 solution; Corning 46-031-CM)), 3 mM BME (2-Mercaptoethanol; Sigma 63689-25ML-F), 0.03% BGG (0.22 μM filtered. Sigma, G7516-25G), and 0.01% Triton X-100 (Sigma, T9284-10L). Nanoliter quantities of 10-point, 3-fold serial dilution in DMSO was pre-dispensed into 1536 assay plates (Corning, #3724BC) for a final test concentration of 25 μM to 1.3 nM, top to lowest dose, respectively. Enzyme USP25, construct USP25-His6, (Boston Biochem E-546). Concentration and incubation times were optimized for the maximal signal-to-background while maintaining initial velocity conditions at a fixed substrate concentration. The final concentration of the enzyme in the assay was 75 pM. Final substrate (Ub-Rh110 Ubiquitin-Rhodamine 110, R&D Systems # U-555) concentration was 25 nM with [Ub-Rh110]<<Km. 3 μL of 2× enzyme was added to assay plates (pre-stamped with compound) preincubated with […] for 30 minutes and then 3 μL of 2×Ub-Rh110 was added to assay plates. […] Fluorescence was read on the Envision (Excitation at 485 nm and Emission at 535 nm; Perkin Elmer) or on the PheraSTAR (Excitation at 485 nm and Emission at 535 nm; BMG Labtech).

| SMILES | IC50 [1] | IC50 [2] |
| --- | --- | --- |
| Cc1cnc2c(N)c(C(=O)NCCc3c(F)cc(N4C5CCC4CNC5)cc3F)sc2n1 [US10889592, Compound I-11] | in the range around 1.1 µM | in the range around 1.1 µM |
| Cc1cnc2c(N)c(C(=O)NCCc3ccc(N4C5CCC4CNC5)cc3F)sc2n1 [US10889592, Compound I-10] | < 0.2 µM | in the range around 1.1 µM |
